Laboratory results taken from ChEMBL document CHEMBL5308504, “Tm Shift (DSF) assay results for EUbOPEN Chemogenomics Library” (2023).
Values joined by “and” are separate entries in the source; they are usually repeats but may differ in a detail not shown here. Identical values can stand only once.

Legend:
[1] = biological target: T1, Peregrin (Homo sapiens) (UniProt P55201); settings: Compound concentration 20.0 uM, Protein concentration 2.0 uM, Result type QC Liability
T1 sequence (whole entry): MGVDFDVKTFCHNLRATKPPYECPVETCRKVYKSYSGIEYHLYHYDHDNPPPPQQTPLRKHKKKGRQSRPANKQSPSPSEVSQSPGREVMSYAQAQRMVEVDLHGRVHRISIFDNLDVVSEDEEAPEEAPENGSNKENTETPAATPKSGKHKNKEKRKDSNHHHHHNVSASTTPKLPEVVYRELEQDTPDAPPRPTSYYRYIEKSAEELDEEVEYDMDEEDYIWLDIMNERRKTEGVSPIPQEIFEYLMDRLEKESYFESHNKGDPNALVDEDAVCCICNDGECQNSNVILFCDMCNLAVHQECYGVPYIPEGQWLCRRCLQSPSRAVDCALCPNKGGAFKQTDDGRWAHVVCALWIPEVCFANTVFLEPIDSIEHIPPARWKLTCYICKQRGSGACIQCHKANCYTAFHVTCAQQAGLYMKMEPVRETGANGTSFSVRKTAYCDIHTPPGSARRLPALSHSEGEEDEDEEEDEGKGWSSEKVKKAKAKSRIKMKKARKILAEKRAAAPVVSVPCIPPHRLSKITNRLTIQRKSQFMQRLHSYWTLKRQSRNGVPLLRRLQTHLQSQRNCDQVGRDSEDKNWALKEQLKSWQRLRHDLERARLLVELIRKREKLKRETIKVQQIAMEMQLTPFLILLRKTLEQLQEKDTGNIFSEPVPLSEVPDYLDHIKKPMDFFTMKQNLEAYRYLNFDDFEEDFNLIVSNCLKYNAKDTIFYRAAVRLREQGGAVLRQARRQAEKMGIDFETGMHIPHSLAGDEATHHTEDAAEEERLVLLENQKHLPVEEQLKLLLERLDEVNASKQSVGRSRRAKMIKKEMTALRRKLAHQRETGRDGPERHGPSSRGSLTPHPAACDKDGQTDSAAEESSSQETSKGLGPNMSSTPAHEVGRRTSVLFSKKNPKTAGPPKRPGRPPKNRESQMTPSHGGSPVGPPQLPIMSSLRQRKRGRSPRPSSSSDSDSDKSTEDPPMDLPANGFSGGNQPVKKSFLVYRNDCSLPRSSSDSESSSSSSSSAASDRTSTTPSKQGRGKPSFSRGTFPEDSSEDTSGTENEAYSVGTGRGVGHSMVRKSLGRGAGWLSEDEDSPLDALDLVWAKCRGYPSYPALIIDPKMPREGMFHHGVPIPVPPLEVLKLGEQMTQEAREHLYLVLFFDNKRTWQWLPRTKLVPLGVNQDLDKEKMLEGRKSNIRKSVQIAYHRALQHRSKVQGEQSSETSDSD

[2] = biological target: Fibroblast growth factor receptor 3 (Homo sapiens) (UniProt P22607); settings: Compound concentration 20.0 uM, Protein concentration 2.0 uM, Result type QC Liability
Chain of Fibroblast growth factor receptor 3 (Homo sapiens) (P22607 23-806 limits assumed): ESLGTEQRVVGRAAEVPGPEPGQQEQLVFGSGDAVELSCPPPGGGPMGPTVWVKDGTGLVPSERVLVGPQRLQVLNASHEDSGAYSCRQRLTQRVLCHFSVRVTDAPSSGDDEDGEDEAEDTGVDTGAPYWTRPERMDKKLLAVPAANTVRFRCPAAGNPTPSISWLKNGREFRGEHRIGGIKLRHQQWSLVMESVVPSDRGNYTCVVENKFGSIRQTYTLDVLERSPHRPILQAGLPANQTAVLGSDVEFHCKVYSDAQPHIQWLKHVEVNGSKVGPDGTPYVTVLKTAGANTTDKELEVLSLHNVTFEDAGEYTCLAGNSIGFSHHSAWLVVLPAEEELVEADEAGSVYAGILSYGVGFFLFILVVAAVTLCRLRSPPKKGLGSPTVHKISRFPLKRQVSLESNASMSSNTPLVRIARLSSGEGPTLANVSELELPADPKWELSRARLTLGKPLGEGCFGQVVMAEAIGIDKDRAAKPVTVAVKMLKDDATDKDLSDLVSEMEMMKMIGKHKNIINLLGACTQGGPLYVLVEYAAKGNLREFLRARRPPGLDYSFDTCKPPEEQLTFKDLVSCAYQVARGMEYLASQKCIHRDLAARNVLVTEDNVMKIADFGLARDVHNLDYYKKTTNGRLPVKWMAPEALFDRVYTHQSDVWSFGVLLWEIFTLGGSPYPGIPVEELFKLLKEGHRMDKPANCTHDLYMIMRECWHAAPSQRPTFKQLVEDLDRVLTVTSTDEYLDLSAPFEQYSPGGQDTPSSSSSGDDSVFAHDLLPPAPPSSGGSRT
Description: Thermal Shift Assay. Domain: start/stop: P449-E759

Structure (SMILES) | ΔTm [1] | ΔTm [2]
Clc1cccc(Nc2nccc(NCCCN3CCOCC3)n2)c1 | -1.42 °C | 1.15 °C
Nc1ncc2c(n1)-c1c([nH]c3ccc(C4=CCOCC4)cc13)CCC2 | -2.26 °C | 1.34 °C
N#Cc1c(SCc2csc(-c3ccc(Cl)cc3)n2)nc(N2CCCC2)c(C#N)c1-c1ccc(OCCO)cc1 | -3.79 °C | 1.06 °C
CC(=O)c1c(C)c2cnc(Nc3ccc(N4CCN(CCCCNC(=O)COc5cccc6c5C(=O)N(C5CCC(=O)NC5=O)C6=O)CC4)cn3)nc2n(C2CCCC2)c1=O (stereo not drawn) | -1.22 °C | 0.48 °C
CC#CCC(C)[C@H](O)/C=C/[C@@H]1[C@H]2C/C(=C/CCCC(=O)O)C[C@H]2C[C@H]1O (stereo partly drawn) | -2.03 °C | 0.4 °C
O=C1CCCc2[nH]c(-c3ccnc(NCC4CC4)c3)c(Nc3ccccc3)c21 | -3.57 °C | 0.77 °C
CCCCC[C@@](C)(O)/C=C/[C@H]1C(=O)CC(O)C1C/C=C\CCCC(=O)O (stereo partly drawn) | -1.97 °C | 0.37 °C
COc1cc(-c2cc3ncccc3c(O[C@H](C)[C@H]3CNC(=O)C3)n2)cc(OC)c1OC | -2.14 °C and -1.33 °C | 1.61 °C and 1.56 °C
Cn1ncc(-c2nc(N[C@H]3CC[C@H](N)CC3)ncc2Cl)c1CC1CC1 | -1.56 °C | 1.76 °C
O=C(O)c1ccnc(N2CC(O)(c3ccc(OCc4c(-c5c(Cl)cccc5Cl)noc4C4CC4)cc3Cl)C2)c1 | -1.75 °C | 0.03 °C
Fc1ccc(-c2c3cccc(C(F)(F)F)c3nn2Cc2ccc(F)cc2Cl)cc1 | -2.25 °C | 0.67 °C
Cc1cn([C@H](C)CC#N)c(=O)c2cc(Cn3nc(C(F)F)cc3Cl)nn12 | -1.09 °C | 0.78 °C
C=C[C@@]12CCc3cc(O)ccc3[C@H]1CC[C@@]1(C)[C@H]2CC[C@@H]1O | -6.72 °C | 0.31 °C
Cc1csc(-c2nnc(Nc3ccc(Oc4ncccc4-c4ccnc(N)n4)cc3)c3ccccc23)c1 | -5.77 °C | -1.73 °C
Cn1nc(-c2ccc(C(N)=O)cc2)c2ccccc2c1=O | -1.74 °C | 1.06 °C
Cc1nc2ccc(Cl)cc2c(-c2ccccc2)c1CC(=O)O | -3.32 °C | 0.68 °C
COc1cc(-c2cc3ncccc3c(OC[C@H]3CNC(=O)C3)n2)cc(OC)c1OC1CCOCC1 | -1.09 °C | 1.16 °C
C[C@H](CCC(=O)O)[C@H]1CC[C@H]2[C@@H]3CC[C@@H]4C[C@H](O)CC[C@]4(C)[C@H]3CC[C@]12C | -3.84 °C | -0.33 °C
O=C(O)CCCc1cc2cc(Cl)ccc2n1S(=O)(=O)c1ccc2ncsc2c1 | -1.78 °C | 0.8 °C
CC(C)c1nc2c(c3c1[C@H](c1ccc(C(F)(F)F)cc1)OC31CCOCC1)[C@H](O)CC(C)(C)C2 | -3.09 °C | 0.52 °C
CNC(=O)c1ccc2c(c1)ncn2-c1ccc(CC(=O)OC(C)(C)C)cc1 | -1.38 °C | 4.13 °C
C=CC(=O)Nc1cccc(C(=O)Nc2ccc(Nc3cc(-c4c(-c5ccc(F)cc5)nc(SC)n4C)ccn3)cc2)c1 | 0.18 °C | -0.43 °C
COc1ccc(CC[C@@H](OC(=O)[C@@H]2CCCCN2C(=O)[C@H](c2cc(OC)c(OC)c(OC)c2)C2CCCCC2)c2cccc(OCCN3CCOCC3)c2)cc1OC | -5.77 °C | -3.93 °C
CC[C@@H](Nc1c(C#N)c(-c2ccc(-c3cccc(C)c3F)cc2)nc2cnccc12)C(=O)O | -0.66 °C | 0 °C
CO[C@H]1C[C@@H]2CC[C@@H](C)[C@@](O)(O2)C(=O)C(=O)N2CCCC[C@H]2C(=O)O[C@H]([C@H](C)C[C@@H]2CC[C@@H](O)[C@H](OC)C2)CC(=O)[C@H](C)/C=C(\C)[C@@H](O)[C@@H](OC)C(=O)[C@H](C)C[C@H](C)/C=C/C=C/C=C/1C | -1.78 °C | 0.26 °C
COc1ccc(OC(=O)N(CC(=O)O)Cc2ccc(OCCc3nc(-c4ccccc4)oc3C)cc2)cc1 | -1.99 °C | 0.89 °C
CSc1ccc(C(=O)/C=C/c2cc(C)c(OC(C)(C)C(=O)O)c(C)c2)cc1 | -1.39 °C | 1.12 °C
Cc1ncc(C(=O)Nc2cc(C(C)(C)C)on2)cc1-n1cc(-c2cnn(C)c2C)nn1 | 0.08 °C | 2.95 °C
CN(CC(=O)Nc1ccc(F)c(F)c1F)C(=O)c1ccc2c(c1)OCCO2 | -0.72 °C | 0.6 °C
